Our source for the Number mean, PDI and Z-avg values is patent US20260337153A1, “IONIZABLE AMINE LIPIDS” (Intellia Therapeutics, Inc., priority 2023, published 2026).

Values joined by “and” are separate entries in the source; they are usually repeats but may differ in a detail not shown here. Identical values can stand only once.

The nature of this series: LNP average particle size and polydispersity by dynamic light scattering. In kind it is physicochemical. Particulars: Table 3, Experiments 1-13; LNP 50% ionizable lipid, 38% cholesterol, 9% DSPC, 3% PEG2K-DMG; sgRNA:mRNA 1:2. The protocol: Dynamic Light Scattering (“DLS”) is used to characterize the polydispersity index (“pdi” or “PDI”) and size of the LNPs of the present disclosure. DLS measures the scattering of light that results from subjecting a sample to a light source. PDI, as determined from DLS measurements, represents the distribution of particle size (around the mean particle size) in a population, with a perfectly uniform population having a PDI of zero.
LNP compositions are analyzed for average particle size, polydispersity index (pdi), total RNA content, encapsulation efficiency of RNA, and zeta potential. LNP compositions may be further characterized by lipid analysis, AF4-MALS, NTA, and/or cryo-EM.
Average particle size and polydispersity are measured by dynamic light scattering (DLS) using a Malvern Zetasizer DLS instrument. LNP samples were diluted with PBS buffer prior to being measured by DLS. Z-average diameter (“Z-avg”) which is an intensity-based measurement of average particle size was reported along with number average diameter (“number mean”) and PDI. A Malvern Zetasizer instrument is also used to measure the zeta potential of the LNP. Samples are diluted 1:17 (50 μL into 800 μL) in 0.1×PBS, pH 7.4 prior to measurement.
In vivo editing efficiency for materials delivered with formulations including various amine lipid (or ionizable lipid) compounds in Experiments 1 through 14 as described in Tables 3 and 4 was assessed. Editing was measured using G000534 (SEQ ID NO: 5) which targets the rat TTR gene. Lipids described above were assessed for efficacy through in vivo editing experiments. LNPs were formulated at a 1:2 w/w ratio of sgRNA (SEQ ID NO: 5) and Cas9 mRNA (SEQ ID NO: 3). In Experiments 1 through 13, lipid components of the LNP are formulated in a molar ratio of 50% ionizable lipid, 38% cholesterol, 9% DSPC, and 3% PEG2K-DMG. In Experiment 14, lipid components of the LNP are formulated in a molar ratio of 50% ionizable lipid, 38% cholesterol, 9% DSPC, and 3% C13 Ether. The final LNPs used in different in vivo editing experiments were characterized to determine the encapsulation efficiency (% E), polydispersity index (PDI), and average particle size (Z-avg and number mean) according to the analytical methods provided above. The pKa values of each of the following ionizable lipids were also measured to be in the range of about 5.8 to about 7.6.
In vivo editing efficiency for materials delivered with formulations including various combinations of amine lipid (or ionizable lipid) and PEG lipid compounds was assessed as described in Tables 5 and 6. Editing was measured using G000534 (SEQ ID NO: 5) which targets the rat TTR gene. Lipids described above were assessed for efficacy through in vivo editing experiments. LNPs were formulated at a 1:2 w/w ratio of sgRNA (SEQ ID NO: 5) and Cas9 mRNA (SEQ ID NO:3). Lipid components of the LNP are formulated in a molar ratio of 50% ionizable lipid, 38% cholesterol, 9% DSPC, and 3% of various PEG lipids (e.g., PEG2K-DMG, C13 Ether, C14 Ether). The final LNPs used in different in vivo editing experiments were characterized to determine the encapsulation efficiency (% E), polydispersity index (PDI), and average particle size (Z-avg and number mean) according to the analytical methods provided above. The pKa values of each of the following ionizable lipids were also measured to be in the range of about 5.8 to about 7.6.
In vivo editing efficiency for materials delivered with formulations including various amine lipid (or ionizable lipid) compounds as described in Tables 7 and 8 was assessed. Editing was measured using G000534 (SEQ ID NO: 5) which targets the rat TTR gene. Lipids described above were assessed for efficacy through in vivo editing experiments. LNPs were formulated at a 1:2 w/w ratio of sgRNA (SEQ ID NO: 5) and Cas9 mRNA (SEQ ID NO: 3). Lipid components of the LNP were formulated in a molar ratio of 50% ionizable lipid, 38% cholesterol, 9% DSPC, and 3% C13 Ether. […]
As to `CCCCC/C=C\C/C=C\CCCCCCCC(=O)OCC(CCCCC(=O)OC(CCCC)CCCC)COC(=O)OCCCN(CC)CC` (stereo not drawn) [Compound 14, 2-((((3-(diethylamino)propoxy)carbonyl)oxy)methyl)-7-(nonan-5-yloxy)-7-oxoheptyl (9Z,12Z)-octadeca-9,12-dienoate], the Number mean is 107 nm, the PDI is 0.01 and the Z-avg amounted to 114 nm.
Taken in the same sequence, the figures for `CCCCC/C=C\C/C=C\CCCCCCCC(=O)OCC(CCCCC(=O)OC(CCCCCCCC)CCCCCCCC)COC(=O)OCCCN(CC)CC` (stereo not drawn) [Compound 15, 2-((((3-(diethylamino)propoxy)carbonyl)oxy)methyl)-7-(heptadecan-9-yloxy)-7-oxoheptyl (9Z,12Z)-octadeca-9,12-dienoate] were 58 nm, 0.06 and 66 nm.
Taken in the same sequence, the figures for `CCCCC/C=C\C/C=C\CCCCCCCC(=O)OCC(CCCCCCC(=O)OC(CCCCCCCC)CCCCCCCC)COC(=O)OCCCN(CC)CC` (stereo not drawn) [Compound 16, 2-((((3-(diethylamino)propoxy)carbonyl)oxy)methyl)-9-(heptadecan-9-yloxy)-9-oxononyl (9Z,12Z)-octadeca-9,12-dienoate] were 62 nm, 0.03 and 68 nm.
The corresponding values for `CCCCC/C=C\C/C=C\CCCCCCCC(=O)OCC(CCCCC(=O)OC(CCCCCC)CCCCCC)COC(=O)OCCCN(CC)CC` (stereo not drawn) [Compound 17, 2-((((3-(diethylamino)propoxy)carbonyl)oxy)methyl)-7-oxo-7-(tridecan-7-yloxy)heptyl (9Z,12Z)-octadeca-9,12-dienoate] are 67 nm, 0.03 and 74 nm.
On to `CCCCC/C=C\C/C=C\CCCCCCCC(=O)OCC(CCCCCCC(=O)OC(CCCCCC)CCCCCC)COC(=O)OCCCN(CC)CC` (stereo not drawn) [Compound 18, 2-((((3-(diethylamino)propoxy)carbonyl)oxy)methyl)-9-oxo-9-(tridecan-7-yloxy)nonyl (9Z,12Z)-octadeca-9,12-dienoate], for which the Number mean was found to be 69 nm, the PDI is on record as 0.01 and the Z-avg came to 75 nm.
Taken in the same sequence, the figures for `CCCCC/C=C\C/C=C\CCCCCCCC(=O)OCC(CCCCCCCCC(=O)OC(CCCCCC)CCCCCC)COC(=O)OCCCN(CC)CC` (stereo not drawn) [Compound 19, 2-((((3-(diethylamino)propoxy)carbonyl)oxy)methyl)-11-oxo-11-(tridecan-7-yloxy)undecyl (9Z,12Z)-octadeca-9,12-dienoate] were 66 nm, 0.02 and 71 nm.
Taken in the same sequence, the figures for `CCCCC/C=C\C/C=C\CCCCCCCC(=O)OCC(CCCCCCC(=O)OC(CCCC)CCCC)COC(=O)OCCCN(CC)CC` (stereo not drawn) [Compound 20, 2-((((3-(diethylamino)propoxy)carbonyl)oxy)methyl)-9-(nonan-5-yloxy)-9-oxononyl (9Z,12Z)-octadeca-9,12-dienoate] were 68 nm, 0.05 and 84 nm.
Consider `CCCCCCCCOC(CCC(=O)OCC(COC(=O)CCC(OCCCCCCCC)OCCCCCCCC)COC(=O)NCCN(CC)CC)OCCCCCCCC` [Compound 22, 2-((((2-(diethylamino)ethyl)carbamoyl)oxy)methyl)propane-1,3-diyl bis(4,4-bis(octyloxy)butanoate)], for which the Number mean was found to be 77 nm, the PDI was determined as 0 and the Z-avg is on record as 82 nm.
For `CCCCC/C=C\C/C=C\CCCCCCCCC(COC(=O)CCCCCC(=O)OC(CCCCCCCC)CCCCCCCC)COC(=O)NCCN(CC)CC` (stereo not drawn) [Compound 23, 1-((11Z,14Z)-2-((((2-(diethylamino)ethyl)carbamoyl)oxy)methyl)icosa-11,14-dien-1-yl) 7-(heptadecan-9-yl) heptanedioate], the Number mean is 86 nm and 74 nm; the PDI is reported as 0.02; the Z-avg was 90 nm and 81 nm.
`CCCCC/C=C\C/C=C\CCCCCCCC(=O)OCC(CCCCCCCCC(=O)OC(CCCCCCCC)CCCCCCCCC)COC(=O)CCC(CCCCCCCC)OC(=O)NCCN(C)CC` (stereo not drawn) [Compound 24, 3-methyl-15-(9-(octadecan-9-yloxy)-9-oxononyl)-9-octyl-7,12-dioxo-8,13-dioxa-3,6-diazahexadecan-16-yl (9Z,12Z)-octadeca-9,12-dienoate]: the Number mean was 60 nm, the PDI is given as 0.03 and the Z-avg came out at 67 nm.
Taken in the same sequence, the figures for `CCCCC/C=C\C/C=C\CCCCCCCC(=O)OCC(CCCCCCCCC(=O)OC(CCCCCCCC)CCCCCCCCC)COC(=O)CCC(CCCCCCCC)OC(=O)NCCN1CCCC1` (stereo not drawn) [Compound 25, 11-(octadecan-9-yloxy)-11-oxo-2-(((4-(((2-(pyrrolidin-1-yl)ethyl)carbamoyl)oxy)dodecanoyl)oxy)methyl)undecyl (9Z,12Z)-octadeca-9,12-dienoate] were 64 nm, 0.03 and 72 nm.
The corresponding values for `CCCCC/C=C\C/C=C\CCCCCCCC(=O)OCC(CCCCCCCCC(=O)OC(CCCCCCCC)CCCCCCCCC)COC(=O)CCC(CCCC)OC(=O)NCCN(C)CC` (stereo not drawn) [Compound 26, 9-butyl-3-methyl-15-(9-(octadecan-9-yloxy)-9-oxononyl)-7,12-dioxo-8,13-dioxa-3,6-diazahexadecan-16-yl (9Z,12Z)-octadeca-9,12-dienoate] are 76 nm, 0.01 and 81 nm.
The corresponding values for `CCCCC/C=C\C/C=C\CCCCCCCC(=O)OCC(CCCCCCCCC(=O)OC(CCCCCCCC)CCCCCCCCC)COC(=O)CCC(CCCC)OC(=O)NCCN1CCCC1` (stereo not drawn) [Compound 27, 11-(octadecan-9-yloxy)-11-oxo-2-(((4-(((2-(pyrrolidin-1-yl)ethyl)carbamoyl)oxy)octanoyl)oxy)methyl)undecyl (9Z,12Z)-octadeca-9,12-dienoate] are 77 nm, 0.01 and 82 nm.
`CCCCCCCCC(CCCCCCCC)OC(=O)CCCC(=O)OCC(COC(=O)CCCC(=O)OC(CCCCCCCC)CCCCCCCC)COC(=O)NCCN1CCCCC1` [Compound 28, di(heptadecan-9-yl) O,O′-(2-((((2-(piperidin-1-yl)ethyl)carbamoyl)oxy)methyl)propane-1,3-diyl) diglutarate]: the Number mean was 60 nm, the PDI is recorded as 0.022 and the Z-avg amounted to 65 nm.
Taken in the same sequence, the figures for `CCCCCCCCC(CCCCCCCC)OC(=O)CCCC(=O)OCC(COC(=O)CCCC(=O)OC(CCCCCCCC)CCCCCCCC)COC(=O)NCCN1CCCC1` [Compound 29, di(heptadecan-9-yl) O,O′-(2-((((2-(pyrrolidin-1-yl)ethyl)carbamoyl)oxy)methyl)propane-1,3-diyl) diglutarate] were 67 nm, 0.023 and 74 nm.
Consider `CCCCCCCCC(CCCCCCCC)OC(=O)CCCC(=O)OCC(COC(=O)CCCC(=O)OC(CCCCCCCC)CCCCCCCC)COC(=O)OCCCN(C)CC` [Compound 30, O,O′-(2-((((3-(ethyl(methyl)amino)propoxy)carbonyl)oxy)methyl)propane-1,3-diyl) di(heptadecan-9-yl) diglutarate], for which the Number mean is 64 nm, the PDI turned out to be 0.02 and the Z-avg worked out at 71 nm.
